According to US20220330549A1, “USE OF N-BENZYLBENZAMIDE-BASED COMPOUND AS HERBICIDE” (Northwest A&F University, priority 2020, published 2022):

Assays:
Format in all cases: in vivo
[1] = system: Humulus scandens; assay: Herbicidal activity test for indoor pre-emergence soil treatment; conditions: 150 g a.i./ha, visual inspection 21 days after treatment
In short: (§1)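 Pre-emergence test following NY/T 1155.3-2006: weed seeds were sown in moistened neutral sandy loam (≤2% organic matter) and covered with 0.5–2.0 cm of soil. After 24 h, the soil was sprayed with a 10% EC diluted in water at 150 g(a.i.)/ha. Damage was scored visually on a 1–9 scale at 21 days.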

[2] = system: Digitaria sanguinalis; assay: as above; design: key: 1-9 levels; higher = more weed remaining vs blank control; conditions: 150 g a.i./ha, visual inspection 21 days after treatment
In short: as §1

[3] = system: Amaranthus retroflexus; assay: as above; design: key: 1-9 levels; higher = more weed remaining vs blank control; conditions: 150 g a.i./ha, visual inspection 21 days after treatment
In short: as §1

[4] = system: Digitaria sanguinalis; assay: Herbicidal activity test for indoor post-emergence spraying on stems and leaves; design: key: grade level by weed remaining vs blank control, e.g. 5 = 10.1-15%; conditions: 150 g a.i./ha, visual inspection 21 days after treatment
In short: (§2)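 Post-emergence stem and leaf spray in an indoor test following NY/T 1155.4-2006, with weeds sown and grown in a greenhouse. Effect scored visually 21 days after treatment as graded levels, each level set by the percentage of weed remaining relative to the blank control area.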

[5] = system: Barnyard grass; assay: as above; design: key: grade level by weed remaining vs blank control, e.g. 5 = 10.1-15%; conditions: 150 g a.i./ha, visual inspection 21 days after treatment
In short: as §2

[6] = system: Piemarker; assay: as above; design: key: grade level by weed remaining vs blank control, e.g. 5 = 10.1-15%; conditions: 150 g a.i./ha, visual inspection 21 days after treatment
In short: as §2

[7] = system: Humulus scandens; assay: as above; design: key: grade level by weed remaining vs blank control, e.g. 5 = 10.1-15%; conditions: 150 g a.i./ha, visual inspection 21 days after treatment
In short: as §2

[8] = system: Amaranthus retroflexus; assay: as above; design: key: grade level by weed remaining vs blank control, e.g. 5 = 10.1-15%; conditions: 150 g a.i./ha, visual inspection 21 days after treatment
In short: as §2

[9] = system: green bristlegrass; assay: as above; design: key: grade level by weed remaining vs blank control, e.g. 5 = 10.1-15%; conditions: 150 g a.i./ha, visual inspection 21 days after treatment
In short: as §2

[10] = system: Barnyard grass; assay: Herbicidal activity test for indoor pre-emergence soil treatment; design: key: level 1-9; higher = more weed remaining vs blank control; conditions: 150 g a.i./ha, visual inspection 21 days after treatment
In short: as §1

[11] = system: Piemarker; assay: as above; design: key: level 1-9; higher = more weed remaining vs blank control; conditions: 150 g a.i./ha, visual inspection 21 days after treatment
In short: as §1

[12] = system: green bristlegrass; assay: as above; design: key: level 1-9; higher = more weed remaining vs blank control; conditions: 150 g a.i./ha, visual inspection 21 days after treatment
In short: as §1

[13] = system: Gramineae; assay: Post-emergence herbicidal activity test in a paddy field; design: key: level scale; higher level = more weed left vs blank control; conditions: 150 g a.i./ha (penoxsulam control 250 g(a.i.)/h)
In short: (§3)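 Efficacy was visually estimated 15 and 30 days after spraying, grading weed coverage relative to an untreated neighbouring plot (level 2 = 0 to 2.5%, level 9 = 67.6 to 100%). Treatments were 150 g(a.i.)/ha from 10% emulsifiable concentrates applied at the 4-5 leaf rice stage, four repeats of 50 m^2 each.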

[14] = system: Cyperaceae; assay: as above; design: key: level scale; higher level = more weed left vs blank control; conditions: 150 g a.i./ha (penoxsulam control 250 g(a.i.)/h)
In short: as §3

[15] = system: Broadleaf weed; assay: as above; design: key: level scale; higher level = more weed left vs blank control; conditions: 150 g a.i./ha (penoxsulam control 250 g(a.i.)/h)
In short: as §3

[16] = system: Solanum nigrum; assay: Field test for weed control in a corn field; conditions: 150 g a.i./ha, 30 days after treatment
In short: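 Post-emergence weed control was tested in a corn field following GB/T 17980.42-2000. Compounds were made into 10% emulsifiable concentrates, diluted in water and sprayed at 150 g(a.i.)/ha when corn had 2 to 5 leaves after sowing, in 20 m^2 plots with 4 replicates. Effects on Solanum nigrum were graded on a 1-9 scale relative to the blank control area.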

[17] = system: Portulaca oleracea; assay: Field test for weed control in a corn field; conditions: 150 g a.i./ha, after treatment
In short: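 Field efficacy trial in corn following GB/T 17980.42-2000. Test compounds were prepared as 10% emulsifiable concentrates, diluted in water, and sprayed at 150 g(a.i.)/ha when corn had 2 to 5 leaves after sowing. Plots were 20 m^2 with 4 replicates per treatment. Herbicidal activity was scored on a 1-9 scale from weed damage symptoms and severity.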

[18] = system: Digitaria sanguinalis; assay: Field test for weed control in a corn field; conditions: 150 g a.i./ha, after treatment
In short: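 Field trial in a corn field following GB/T 17980.42-2000. Test compounds were formulated as 10% emulsifiable concentrates, diluted in water and sprayed post-emergence at 150 g(a.i.)/ha when corn had 2 to 5 leaves, with 4 replicates on 20 m^2 plots. Control of Digitaria sanguinalis was scored on a 1-9 scale based on weed damage relative to the untreated blank area.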

[19] = system: Acalypha australis; assay: Field test for weed control in a corn field; conditions: 150 g a.i./ha, after treatment
In short: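 Post-emergence field trial in a corn field following GB/T 17980.42-2000. Test compounds were formulated as 10% emulsifiable concentrates, diluted in water, and sprayed at 150 g(a.i.)/ha when corn had 2 to 5 leaves, with 4 replicates on 20 m^2 plots. Mesotrione 25% oil dispersion served as the control agent. Weed control was scored on a 1-9 scale.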

[20] = system: Convolvulus arvensis; assay: Field test for weed control in a corn field; conditions: 150 g a.i./ha, after treatment
In short: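 Field trial of weed control against Convolvulus arvensis in corn, run following GB/T 17980.42-2000. Test agents were formulated as 10% emulsifiable concentrates and sprayed in water at 150 g(a.i.)/ha when corn plants had 2 to 5 leaves. Each treatment was replicated 4 times on 20 m^2 plots, and 25% mesotrione oil dispersion served as the control agent.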

[21] = system: Barnyard grass; assay: Field test for weed control in a corn field; conditions: 150 g a.i./ha, 30 days after treatment
In short: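 Corn-field efficacy trial following GB/T 17980.42-2000. Test compounds were formulated as 10% emulsifiable concentrates, diluted in water and sprayed post-emergence at 150 g(a.i.)/ha when corn had 2 to 5 leaves. Each treatment was replicated 4 times on 20 m^2 plots. Barnyard grass control was rated on a 1-9 damage scale.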

[22] = system: nutgrass flatsedge; assay: Field test for weed control in a corn field; conditions: 150 g a.i./ha, after treatment
In short: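 A corn field efficacy trial following GB/T 17980.42-2000 assessed post-emergence control of nutgrass flatsedge. Test compounds were formulated as 10% emulsifiable concentrates, diluted in water, and sprayed at 150 g(a.i.)/ha when the corn had 2 to 5 leaves. Each treatment had 4 replicates on 20 m^2 plots. Herbicidal activity was graded on a 1-9 scale by damage symptoms and severity.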

[23] = system: Chenopodium album; assay: Field test for weed control in a corn field; conditions: 150 g a.i./ha, after treatment
In short: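 A corn-field efficacy trial following GB/T 17980.42-2000 tested post-emergence control of Chenopodium album. Test compounds formulated as 10% emulsifiable concentrates were diluted in water and sprayed at 150 g(a.i.)/ha when the corn had 2 leaves to 5 leaves, on 20 m^2 plots with 4 replicates. Herbicidal activity was rated on a 1-9 scale by damage symptoms and severity.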

[24] = system: Amaranthus retroflexus; assay: Field test for weed control in a corn field; conditions: 150 g a.i./ha, 30 days after treatment
In short: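 Field efficacy trial in a corn field following GB/T 17980.42-2000. Test compounds were formulated as 10% emulsifiable concentrates, diluted in water and sprayed post-emergence when corn had 2 to 5 leaves. Each treatment covered 20 m^2 with 4 replicates. A 25% mesotrione oil dispersion served as control. Damage to Amaranthus retroflexus was rated on a 1-9 scale against untreated blank plots.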

[25] = system: green bristlegrass; assay: Field test for weed control in a corn field; conditions: 150 g a.i./ha, after treatment
In short: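 Post-emergence weed control was tested in a corn field following GB/T 17980.42-2000. When the corn had 2 leaves to 5 leaves after sowing, 10% emulsifiable concentrates diluted in water were sprayed at 150 g(a.i.)/ha on 20 m^2 plots, four replicates per treatment. Effects on green bristlegrass were scored on a 1-9 damage scale relative to the blank control area.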

[26] = system: goosegrass; assay: Field test for weed control in a corn field; conditions: 150 g a.i./ha, after treatment
In short: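 Weed control efficacy against goosegrass was tested in a corn field following GB/T 17980.42-2000. Compounds formulated as 10% emulsifiable concentrates were diluted in water and sprayed post-emergence at 150 g(a.i.)/ha when corn had 2 to 5 leaves, with 4 replicates of 20 m^2 plots. Herbicidal activity was rated on a 1-9 scale by damage symptoms and severity.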

COc1ccccc1C(=O)NCc1cccc(C)c1 [Compound A14, 2-methoxy-N-(3-methylbenzyl)benzamide]
Herbicidal Activity Humulus scandens [1]: 3 (equivalent to 2.6 to 5% of the weed in the blank control area) | Herbicidal Activity Digitaria sanguinalis [2]: 2 (equivalent to 0 to 2.5% of the weed in the blank control area) | Herbicidal Activity Amaranthus retroflexus [3]: 2 (equivalent to 0 to 2.5% of the weed in the blank control area) | Herbicidal Activity Digitaria sanguinalis [4]: 1 | Herbicidal Activity Barnyard grass [5]: 2 (equivalent to 0 to 2.5% of the weed in the blank control area) | Herbicidal Activity Piemarker [6]: 1 | Herbicidal Activity Humulus scandens [7]: 1 | Herbicidal Activity Amaranthus retroflexus [8]: 1 | Herbicidal Activity Green bristlegrass [9]: 1 | Herbicidal Activity Barnyard grass [10]: 2 (equivalent to 0 to 2.5% of the weed in the blank control area) | Herbicidal Activity Piemarker [11]: 1 | Herbicidal Activity Green bristlegrass [12]: 1 | Herbicidal activity 15 days after treatment Gramineae [13]: 1 | Herbicidal activity 30 days after treatment Gramineae [13]: 2 (equivalent to 0 to 2.5% of the weed in the blank control area) | Herbicidal activity 15 days after treatment Cyperaceae [14]: 1 | Herbicidal activity 30 days after treatment Cyperaceae [14]: 2 (equivalent to 0 to 2.5% of the weed in the blank control area) | Herbicidal activity 15 days after treatment Broadleaf weed [15]: 1 | Herbicidal activity 30 days after treatment Broadleaf weed [15]: 2 (equivalent to 0 to 2.5% of the weed in the blank control area) | Post-emergence weed control effect, Solanum nigrum [16]: 2 (equivalent to 0 to 2.5% of the weed in the blank control area) | Post-emergence weed control effect, Portulaca oleracea [17]: 1 | Post-emergence weed control effect, Digitaria sanguinalis [18]: 2 (equivalent to 0 to 2.5% of the weed in the blank control area) | Post-emergence weed control effect, Acalypha australis [19]: 2 (equivalent to 0 to 2.5% of the weed in the blank control area) | Post-emergence weed control effect, Convolvulus arvensis [20]: 1 | Post-emergence weed control effect, Barnyard grass [21]: 1 | Post-emergence weed control effect, Nutgrass flatsedge [22]: 2 (equivalent to 0 to 2.5% of the weed in the blank control area) | Post-emergence weed control effect, Chenopodium album [23]: 1 | Post-emergence weed control effect, Amaranthus retroflexus [24]: 1 | Post-emergence weed control effect, Green bristlegrass [25]: 1 | Post-emergence weed control effect, Goose grass [26]: 1

COc1ncccc1C(=O)NCc1ccc(F)cc1 [Compound A94]
Herbicidal Activity Humulus scandens [1]: 2 (equivalent to 0 to 2.5% of the weed in the blank control area) | Herbicidal Activity Digitaria sanguinalis [2]: 1 | Herbicidal Activity Amaranthus retroflexus [3]: 1 | Herbicidal Activity Digitaria sanguinalis [4]: 1 | Herbicidal Activity Barnyard grass [5]: 1 | Herbicidal Activity Piemarker [6]: 1 | Herbicidal Activity Humulus scandens [7]: 1 | Herbicidal Activity Amaranthus retroflexus [8]: 1 | Herbicidal Activity Green bristlegrass [9]: 1 | Herbicidal Activity Barnyard grass [10]: 1 | Herbicidal Activity Piemarker [11]: 1 | Herbicidal Activity Green bristlegrass [12]: 1 | Herbicidal activity 15 days after treatment Gramineae [13]: 2 (equivalent to 0 to 2.5% of the weed in the blank control area) | Herbicidal activity 30 days after treatment Gramineae [13]: 2 (equivalent to 0 to 2.5% of the weed in the blank control area) | Herbicidal activity 15 days after treatment Cyperaceae [14]: 1 | Herbicidal activity 30 days after treatment Cyperaceae [14]: 2 (equivalent to 0 to 2.5% of the weed in the blank control area) | Herbicidal activity 15 days after treatment Broadleaf weed [15]: 1 | Herbicidal activity 30 days after treatment Broadleaf weed [15]: 1 | Post-emergence weed control effect, Solanum nigrum [16]: 2 (equivalent to 0 to 2.5% of the weed in the blank control area) | Post-emergence weed control effect, Portulaca oleracea [17]: 1 | Post-emergence weed control effect, Digitaria sanguinalis [18]: 2 (equivalent to 0 to 2.5% of the weed in the blank control area) | Post-emergence weed control effect, Acalypha australis [19]: 2 (equivalent to 0 to 2.5% of the weed in the blank control area) | Post-emergence weed control effect, Convolvulus arvensis [20]: 2 (equivalent to 0 to 2.5% of the weed in the blank control area) | Post-emergence weed control effect, Barnyard grass [21]: 1 | Post-emergence weed control effect, Nutgrass flatsedge [22]: 3 (equivalent to 2.6 to 5% of the weed in the blank control area) | Post-emergence weed control effect, Chenopodium album [23]: 1 | Post-emergence weed control effect, Amaranthus retroflexus [24]: 1 | Post-emergence weed control effect, Green bristlegrass [25]: 2 (equivalent to 0 to 2.5% of the weed in the blank control area) | Post-emergence weed control effect, Goose grass [26]: 1
